Type in all cases: functional
Assay [1] is filed under the species Rattus norvegicus. In words: Inhibition of insulin release from rat pancreatic islets incubated in the presence of glucose ([…]) at concentration of 50 uM.
The species entered for assay [2] is Rattus norvegicus. In words: Inhibition of insulin release from rat pancreatic islets incubated in the presence of glucose ([…]) at concentration of 10 uM.
The species entered for assay [3] is Rattus norvegicus. In words: Inhibition of insulin release from rat pancreatic islets incubated in the presence of glucose ([…]) at concentration of 1 uM.
The species named for assay [4] is Rattus norvegicus. The assay is described as follows: Inhibition of insulin release from rat pancreatic islets incubated in the presence of glucose ([…]) at concentration of 100 uM.
For assay [5], the species on record is Rattus norvegicus. The assay is described as follows: Inhibition of insulin release from rat pancreatic islets incubated in the presence of glucose ([…]) at concentration of 500 uM.

In the case of `NC1=NS(=O)(=O)c2cnccc2N1`, the Secretion in assay [1] is 104.1%.

`CCC(C)NC1=NS(=O)(=O)c2cnccc2N1` (configuration not stated): the Secretion in assay [2] came out at 49%; in assay [3], 97.8%; in assay [4] it was 7.1%; in assay [1], 9.4%; in assay [5], 9.4%.

On to `CCCNC1=NS(=O)(=O)c2cnccc2N1`, for which the Secretion in assay [2] worked out at 87.3%; in assay [3] it was 97.1%; in assay [4] it was 21.9%; in assay [1], 57.7%; in assay [5], 9%.

`O=S1(=O)N=C(NN2CCOCC2)Nc2ccncc21`: in assay [1], the Secretion was 94.8%.

As to `O=S1(=O)N=C(NC2CCCCC2)Nc2ccncc21`, the Secretion in assay [2] is 64.4%; in assay [3], 74.4%; in assay [4] it was 18.4%; in assay [1], 40.5%; in assay [5] it was 6.2%.

As to `CC(C)C(C)NC1=NS(=O)(=O)c2cc(Cl)ccc2N1` (configuration not stated), the Secretion is given as 62.7% in assay [2]; 88.9% in assay [3]; 6.5% in assay [4]; 11% in assay [1]; 4.6% in assay [5].

As to `CCCCNC1=NS(=O)(=O)c2cnccc2N1`, the Secretion amounted to 82% in assay [2]; 83.7% in assay [3]; 32.5% in assay [4]; 38.6% in assay [1]; 9% in assay [5].

As for `O=S1(=O)N=C(NC2CCCC2)Nc2ccncc21`, the Secretion stood at 71.1% in assay [2]; 82.8% in assay [3]; 9.2% in assay [4]; 31.5% in assay [1]; 4.4% in assay [5].

For the compound `CC(C)CNC1=NS(=O)(=O)c2cnccc2N1`, the Secretion turned out to be 71.8% in assay [2]; 84.2% in assay [3]; 10.2% in assay [4]; 23.4% in assay [1]; 9.7% in assay [5].

`CC(C)C(C)NC1=NS(=O)(=O)c2cnccc2N1` (configuration not stated): the Secretion is given as 13.7% in assay [2]; 70.5% in assay [3]; 8.8% in assay [4]; 8.6% in assay [1]; 8.4% in assay [5].

Consider `CC(C)NC1=NS(=O)(=O)c2cnccc2N1`, for which the Secretion in assay [2] was determined as 55.3%; in assay [3], 110.3%; in assay [4], 18.4%; in assay [1], 42.5%; in assay [5] it was 8.8%.

For the compound `CC1=Nc2ccc(Cl)cc2S(=O)(=O)N1` [DIAZOXIDE], the Secretion in assay [2] was 70%; in assay [3] it was 78.9%; in assay [4], 14%; in assay [1], 28.8%; in assay [5] it was 8.5%.

For the origin of these results see ChEMBL document CHEMBL1127056, “3-(Alkylamino)-4H-pyrido[4,3-e]-1,2,4-thiadiazine 1,1-dioxides as powerful inhibitors of insulin release from rat pancreatic B-cells: a new class of potassium channel openers?” (1993).
